# According to patent US8735584B2 (Merck Patent GmbH, priority 2008, dated 2014):
# Target: T1, GST-Aurora A (Homo sapiens, UniProt O14965)
# T1 construct: N-terminal GST fusion with full length Aurora A (1-403 amino acids); purchased Carna Biosciences 05-101
# T1 sequence (O14965 1-403): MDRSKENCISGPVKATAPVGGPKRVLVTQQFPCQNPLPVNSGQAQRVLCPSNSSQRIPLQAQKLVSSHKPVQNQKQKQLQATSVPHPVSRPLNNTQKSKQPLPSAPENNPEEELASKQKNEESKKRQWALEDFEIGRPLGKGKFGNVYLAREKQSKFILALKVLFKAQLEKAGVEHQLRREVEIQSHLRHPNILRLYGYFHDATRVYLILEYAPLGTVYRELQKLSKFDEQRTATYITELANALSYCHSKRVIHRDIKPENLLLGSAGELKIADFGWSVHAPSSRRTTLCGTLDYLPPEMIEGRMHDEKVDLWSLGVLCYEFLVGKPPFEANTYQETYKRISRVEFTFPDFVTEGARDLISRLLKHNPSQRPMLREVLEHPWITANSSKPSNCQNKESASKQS
# Test: Aurora A IC50, Caliper LC3000 mobility shift assay
# Type: biochemical
# Conditions: LC3000 method; 15 uM ATP (the KM value); read-out: Aurora Kinase A Activity (IC50)
# Procedure, shortened: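 Readout: percent conversion of FITC-LRRASLG (1 uM) to phosphopeptide, resolved electrophoretically on a Caliper LC3000, fitted against inhibitor concentration for IC50. Reaction: N-terminal GST full-length Aurora A, ATP at its KM (15 uM), pH 7.5 HEPES with MgCl2/DTT, 25 C for 90 min.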
row,Compound,IC50
1,"O=C(Nc1ccc(Nc2ccnc3[nH]c(=O)c4ccccc4c23)cc1)C1(C(F)(F)F)CC1 [Compound 501, N-(4-(6-Oxo-5,6-dihydrobenzo[c][1,8]naphthyridin-1-ylamino)phenyl)-1-(trifluoromethyl)cyclopropanecarboxamide]",11 to 100 nM
2,"O=C(Nc1ccc(Nc2ccnc3[nH]c(=O)c4ccccc4c23)cc1)C1(c2ccccc2)CC1 [Compound 502, N-(4-(6-Oxo-5,6-dihydrobenzo[c][1,8]naphthyridin-1-ylamino)phenyl)-1-phenylcyclopropanecarboxamide]",11 to 100 nM
3,"O=C(Cn1cccn1)Nc1ccc(Nc2ccnc3[nH]c(=O)c4ccccc4c23)cc1 [Compound 503, N-(4-(6-Oxo-5,6-dihydrobenzo[c][1,8]naphthyridin-1-ylamino)phenyl)-2-(1H-pyrazol-1-yl)acetamide]",11 to 100 nM
4,"COc1cccc(F)c1C(=O)Nc1ccc(Nc2ccnc3[nH]c(=O)c4ccccc4c23)cc1 [Compound 504, 2-Fluoro-6-methoxy-N-(4-(6-oxo-5,6-dihydrobenzo[c][1,8]naphthyridin-1-ylamino)phenyl)benzamide]",< 11 nM
5,"O=C(Nc1ccc(Nc2ccnc3[nH]c(=O)c4ccccc4c23)cc1)C(F)c1ccccc1 (stereo not shown) [Compound 505, 2-Fluoro-N-(4-(6-oxo-5,6-dihydrobenzo[c][1,8]naphthyridin-1-ylamino)phenyl)-2-phenylacetamide]",11 to 100 nM
6,"O=C(Nc1ccc(Nc2ccnc3[nH]c(=O)c4ccccc4c23)cc1)c1ncccc1F [Compound 506, 3-Fluoro-N-(4-(6-oxo-5,6-dihydrobenzo[c][1,8]naphthyridin-1-ylamino)phenyl)picolinamide]",11 to 100 nM
7,"O=c1[nH]c2ncccc2c2cc(NCc3cccc4ccccc34)ccc12 [Example 45, 9-[(Naphthalen-1-ylmethyl)-amino]-5H-benzo[c][1,8]naphthyridin-6-one]",> 100 nM
8,"Cc1ccccc1CNc1ccc2c(=O)[nH]c3ncccc3c2c1 [Example 46, 9-(2-Methyl-benzylamino)-5H-benzo[c][1,8]naphthyridin-6-one]",> 100 nM
9,"O=c1[nH]c2ncccc2c2cc(NCc3ccccc3C(F)(F)F)ccc12 [Example 48, 9-(2-Trifluoromethyl-benzylamino)-5H-benzo[c][1,8]naphthyridin-6-one]",11 to 100 nM
10,"Clc1nc2ncccc2c2cc(NCc3ccccc3)ccc12 [Example 53, Benzyl-(6-chloro-benzo[c][1,8]naphthyridin-9-yl)-amine]",> 100 nM
11,"O=c1[nH]c2ncccc2c2cc(NCc3cccc(C(F)(F)F)c3)ccc12 [Example 69, 9-(3-Trifluoromethyl-benzylamino)-5H-benzo[c][1,8]naphthyridin-6-one]",11 to 100 nM
12,"O=c1[nH]c2ncccc2c2cc(NS(=O)(=O)c3ccc(Br)cc3)ccc12 [Example 72, 4-Bromo-N-(6-oxo-5,6-dihydro-benzo[c][1,8]naphthyridin-9-yl)-benzenesulfonamide]",> 100 nM
13,"O=c1[nH]c2ncccc2c2cc(NCc3cccnc3)ccc12 [Example 123, 9-[(Pyridin-3-ylmethyl)-amino]-5H-benzo[c][1,8]naphthyridin-6-one]",> 100 nM
14,"COc1cccc(C#Cc2ccnc3[nH]c(=O)c4ccccc4c23)c1 [Example 160, 1-(3-Methoxy-phenylethynyl)-5H-benzo[c][1,8]naphthyridin-6-one]",> 100 nM
15,"O=c1[nH]c2nccc(Oc3ccc(NS(=O)(=O)c4cccc(Cl)c4Cl)cc3)c2c2ccccc12 [Example 173, 2,3-Dichloro-N-[4-(6-oxo-5,6-dihydro-benzo[c][1,8]naphthyridin-1-yloxy)-phenyl]-benzenesulfonamide]",11 to 100 nM
16,"O=C(Nc1ccc(Oc2ccnc3[nH]c(=O)c4ccccc4c23)c(F)c1)c1cc(Cl)cnc1Cl [Example 183, 2,5-Dichloro-N-[3-fluoro-4-(6-oxo-5,6-dihydro-benzo[c][1,8]naphthyridin-1-yloxy)-phenyl]-nicotinamide]",> 100 nM
17,"COc1cc2c(=O)[nH]c3nccc(Nc4ccc(Cl)cc4)c3c2cc1OC [Example 213, 1-(4-Chloro-phenylamino)-8,9-dimethoxy-5H-benzo[c][1,8]naphthyridin-6-one]",11 to 100 nM

# Results, then the compound that gave them:
row,IC50,Compound
1,> 100 nM,"O=c1[nH]c2ncccc2c2cc(Nc3ccccc3F)ccc12 [Example 32, 9-(2-Fluoro-phenylamino)-5H-benzo[c][1,8]naphthyridin-6-one]"
2,> 100 nM,"COc1cccc(CNc2ccc3c(=O)[nH]c4ncccc4c3c2)c1 [Example 42, 9-(3-Methoxy-benzylamino)-5H-benzo[c][1,8]naphthyridin-6-one]"
3,> 100 nM,"O=c1[nH]c2ncccc2c2cc(NCc3ccc(F)cc3)ccc12 [Example 43, 9-(4-Fluoro-benzylamino)-5H-benzo[c][1,8]naphthyridin-6-one]"
4,11 to 100 nM,"O=c1[nH]c2ncccc2c2cc(NCc3ccccc3F)ccc12 [Example 44, 9-(2-Fluoro-benzylamino)-5H-benzo[c][1,8]naphthyridin-6-one]"
5,> 100 nM,"Cc1cccc(CNc2ccc3c(=O)[nH]c4ncccc4c3c2)c1 [Example 47, 9-(3-Methyl-benzylamino)-5H-benzo[c][1,8]naphthyridin-6-one]"
6,< 11 nM,"COc1ccccc1C(=O)Nc1ccc(Nc2ccnc3[nH]c(=O)c4ccccc4c23)cc1 [Example 148, 2-Methoxy-N-[4-(6-oxo-5,6-dihydro-benzo[c][1,8]naphthyridin-1-ylamino)-phenyl]-benzamide]"
7,> 100 nM,"Cn1ccnc1Sc1ccc(Nc2ccnc3[nH]c(=O)c4ccccc4c23)cc1Cl [Example 156, 1-[3-Chloro-4-(1-methyl-1H-imidazol-2-ylsulfanyl)-phenylamino]-5H-benzo[c][1,8]naphthyridin-6-one]"
8,> 100 nM,"O=C(Nc1ccc(Oc2ccnc3[nH]c(=O)c4ccccc4c23)cc1)c1cccn(-c2ccc(F)cc2)c1=O [Example 181, 1-(4-Fluoro-phenyl)-2-oxo-1,2-dihydro-pyridine-3-carboxylic acid [4-(6-oxo-5,6-dihydro-benzo[c][1,8]naphthyridin-1-yloxy)-phenyl]-amide]"
9,> 100 nM,"O=C(Nc1ccc(Oc2ccnc3[nH]c(=O)c4ccccc4c23)cc1F)c1cccn(-c2ccc(F)cc2)c1=O [Example 187, 1-(4-Fluoro-phenyl)-2-oxo-1,2-dihydro-pyridine-3-carboxylic acid [2-fluoro-4-(6-oxo-5,6-dihydro-benzo[c][1,8]naphthyridin-1-yloxy)-phenyl]-amide]"
10,> 100 nM,"O=c1[nH]c2nccc(Nc3c(Cl)ccc4c3OCO4)c2c2ccccc12 [Example 188, 1-(5-Chloro-benzo[1,3]dioxol-4-ylamino)-5H-benzo[c][1,8]naphthyridin-6-one]"
11,> 100 nM,"COc1cc2c(=O)[nH]c3nccc(Nc4ccc(F)cc4)c3c2cc1OC [Example 215, 1-(4-Fluoro-phenylamino)-8,9-dimethoxy-5H-benzo[c][1,8]naphthyridin-6-one]"
12,11 to 100 nM,"COc1cc2c(=O)[nH]c3nccc(Nc4ccccc4F)c3c2cc1OC [Example 216, 1-(2-Fluoro-phenylamino)-8,9-dimethoxy-5H-benzo[c][1,8]naphthyridin-6-one]"
13,> 100 nM,"O=C(c1ccc(F)cc1C(F)(F)F)N1CCOc2cc(Oc3ccnc4[nH]c(=O)c5ccccc5c34)ccc21 [Example 219, 1-[4-(4-Fluoro-2-trifluoromethyl-benzoyl)-3,4-dihydro-2H-benzo[1,4]oxazin-7-yloxy]-5H-benzo[c][1,8]naphthyridin-6-one]"
14,> 100 nM,"O=C(c1cccn(-c2ccc(F)cc2)c1=O)N1CCOc2cc(Oc3ccnc4[nH]c(=O)c5ccccc5c34)ccc21 [Example 228, 1-{4-[1-(4-Fluoro-phenyl)-2-oxo-1,2-dihydro-pyridine-3-carbonyl]-3,4-dihydro-2H-benzo[1,4]oxazin-7-yloxy}-5H-benzo[c][1,8]naphthyridin-6-one]"
